Columns and labels:
Format in all cases: cell-based
Sialidase-3 [1] = target: T1, Sialidase-3 (Homo sapiens, UniProt Q9UQ49); experiment: Inhibition of human NEU3 expressed in HEK293 cells by fluorometric high-performance liquid chromatography using ganglioside GM3 substrate
T1 sequence (Q9UQ49 whole entry): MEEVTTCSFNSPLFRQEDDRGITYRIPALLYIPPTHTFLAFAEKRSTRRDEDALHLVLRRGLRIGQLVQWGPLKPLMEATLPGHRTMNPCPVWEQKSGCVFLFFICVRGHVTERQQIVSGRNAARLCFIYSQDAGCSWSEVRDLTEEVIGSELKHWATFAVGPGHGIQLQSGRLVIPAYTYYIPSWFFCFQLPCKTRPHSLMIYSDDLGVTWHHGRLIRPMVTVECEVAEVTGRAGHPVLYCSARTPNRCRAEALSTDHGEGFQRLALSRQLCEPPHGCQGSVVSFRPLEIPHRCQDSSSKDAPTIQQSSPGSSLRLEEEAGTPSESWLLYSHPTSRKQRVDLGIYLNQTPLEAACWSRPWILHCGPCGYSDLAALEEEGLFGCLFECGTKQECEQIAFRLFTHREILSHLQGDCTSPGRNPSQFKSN

Sialidase-4 = target: T2, Sialidase-4 (Homo sapiens, UniProt Q8WWR8); experiment: Inhibition of human NEU4 expressed in HEK293 cells by fluorometric high-performance liquid chromatography using 4MU-NeuAc substrate
T2 sequence (Q8WWR8 whole entry): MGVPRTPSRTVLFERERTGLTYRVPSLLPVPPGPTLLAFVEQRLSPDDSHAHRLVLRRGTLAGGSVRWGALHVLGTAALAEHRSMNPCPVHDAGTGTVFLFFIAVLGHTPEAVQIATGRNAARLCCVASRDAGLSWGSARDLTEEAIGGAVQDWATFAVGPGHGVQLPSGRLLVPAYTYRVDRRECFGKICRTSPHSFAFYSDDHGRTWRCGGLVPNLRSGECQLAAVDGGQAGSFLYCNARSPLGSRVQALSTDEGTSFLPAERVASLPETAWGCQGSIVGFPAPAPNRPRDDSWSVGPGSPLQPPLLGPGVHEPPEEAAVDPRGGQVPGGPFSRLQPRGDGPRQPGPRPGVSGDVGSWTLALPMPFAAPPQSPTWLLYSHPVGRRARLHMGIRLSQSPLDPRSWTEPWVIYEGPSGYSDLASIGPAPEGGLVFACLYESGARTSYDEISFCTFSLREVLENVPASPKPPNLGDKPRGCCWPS

Sialidase-1 = Sialidase-1 (Homo sapiens, UniProt Q99519); experiment: Inhibition of human NEU1 expressed in HEK293 cells by fluorometric high-performance liquid chromatography using 4MU-NeuAc substrate
Sialidase-3 [2] = target: T1, Sialidase-3; experiment: Inhibition of human NEU3 expressed in HEK293 cells by fluorometric high-performance liquid chromatography using 4MU-NeuAc substrate

IC50 (Sialidase-3 [1]) [µM] | IC50 (Sialidase-4) [µM] | IC50 (Sialidase-1) [µM] | IC50 (Sialidase-3 [2]) [µM] | SMILES
70.3 |  |  |  | CC(=O)N[C@H]1[C@H]([C@H](O)[C@H](O)CO)OC(C(=O)O)=C[C@@H]1O [NEU5AC2EN]
 | > 10000 | > 10000 | > 10000 | CCOC(=O)C1=C[C@@H](OC(CC)CC)[C@H](NC(C)=O)[C@@H](N)C1 [OSELTAMIVIR]
 |  | 2710 |  | CC(=O)N[C@H]1[C@H]([C@H](O)[C@H](O)CO)OC(C(=O)O)=C[C@@H]1N=C(N)N [ZANAMIVIR]

Source: ChEMBL document CHEMBL1275523 (Antimicrob Agents Chemother, 2008)
